pIC50: −log10 of the molar value.

In the assay the test system is IFNα-induced STAT phosphorylation (pSTAT5) in human whole blood. Briefly: IFNα-Induced STAT Phosphorylation in Human Whole Blood. Type of assay: cell-based. Conditions: 1 h incubation with compound, 1000 U/mL recombinant human IFNα A/D for 15 min, pSTAT5 in CD3 positive population, read-out: IFNα-Induced Stat Phosph. (IC50). The procedure:
IFNα-Induced STAT Phosphorylation in Human Whole Blood
After an hour long incubation with compound, human whole blood (drawn with either EDTA or ACD-A as anti-coagulant) was stimulated with 1000 U/mL recombinant human IFNα A/D (R&D Systems 11200-2) for 15 min. The stimulation was stopped by adding Fix/Lyse buffer (BD 558049). Cells were stained with a CD3 FITC antibody (BD 555916), washed, and permeabilized on ice using Perm III buffer (BD 558050). Cells were then stained with an Alexa-Fluor 647 pSTAT5 (pY694) antibody (BD 612599) for 30 min prior to analysis on the FACS Canto II. The amount of pSTAT5 expression was quantitated by median fluorescence intensity after gating on the CD3 positive population.
Usually pIC50 stands for −log10 of the IC50, conventionally taken in molar units. `CNC(=O)c1nnc(Nc2cc(C(C)(C)N(C)C)ccn2)cc1Nc1ncccc1S(C)(=O)=O` [Example 73]: the pIC50 was 7.12.

In the case of `CNC(=O)c1nnc(Nc2ccc(C(C)(C)NC(=O)OC)cn2)cc1Nc1ncccc1S(C)(=O)=O` [Example 74], the pIC50 was 8.40.

Take `CNC(=O)c1nnc(Nc2ccc(C(C)(C)N3CCOC3=O)cn2)cc1Nc1ncccc1S(C)(=O)=O` [Example 75]: the pIC50 was 7.74.

`CNC(=O)c1nnc(Nc2ccc(C(C)(C)N3CCCC3=O)cn2)cc1Nc1ncccc1S(C)(=O)=O` [Example 76]: the pIC50 was 7.70.

Consider `CNC(=O)c1nnc(Nc2ccc(OCC(C)(C)O)cn2)cc1Nc1ncccc1S(C)(=O)=O` [Example 77], for which the pIC50 was 6.40.

For the compound `CNC(=O)c1nnc(Nc2ccc(C(C)(C)NC(=O)OC(C)C)cn2)cc1Nc1ncccc1S(C)(=O)=O` [Example 78], the pIC50 is 7.40.

On to `CCOC(=O)NC(C)(C)c1ccc(Nc2cc(Nc3ncccc3S(C)(=O)=O)c(C(=O)NC)nn2)nc1` [Example 79], for which the pIC50 is 7.62.

For `CNC(=O)c1nnc(Nc2cnc(OC)cn2)cc1Nc1ncccc1S(C)(=O)=O` [Example 80], the pIC50 is 7.24.

Consider `CNC(=O)c1nnc(Nc2ccc(N3CCOCC3)cn2)cc1Nc1ncccc1S(C)(=O)=O` [Example 81], for which the pIC50 was 8.52.

Take `CNC(=O)c1nnc(Nc2cccc(C)n2)cc1Nc1ncccc1S(C)(=O)=O` [Example 82]: the pIC50 is 7.43.

For the compound `CCOc1ccc(Nc2cc(Nc3ncccc3S(C)(=O)=O)c(C(=O)NC)nn2)nn1` [Example 83], the pIC50 was 7.12.

Regarding `CNC(=O)c1nnc(Nc2cc(COC)ncn2)cc1Nc1ncccc1S(C)(=O)=O` [Example 84], the pIC50 was 7.38.

As to `CNC(=O)c1nnc(Nc2ccc(C)nn2)cc1Nc1ncccc1S(C)(=O)=O` [Example 85], the pIC50 was 7.96.

Turning to `CNC(=O)c1nnc(Nc2ccc(F)nn2)cc1Nc1ncccc1S(C)(=O)=O` [Example 86], the pIC50 is 7.40.

For the compound `CNC(=O)c1nnc(Nc2cc(F)c(F)cn2)cc1Nc1ncccc1S(C)(=O)=O` [Example 87], the pIC50 was 6.38.

Consider `CNC(=O)c1nnc(Nc2cc(C(F)(F)F)n(C)n2)cc1Nc1ncccc1S(C)(=O)=O` [Example 88], for which the pIC50 was 7.33.

Regarding `CNC(=O)c1nnc(Nc2ccc(-n3cc(Cl)ccc3=O)cn2)cc1Nc1ncccc1S(C)(=O)=O` [Example 89], the pIC50 was 7.49.

Regarding `CNC(=O)c1nnc(Nc2ccc(Cl)nn2)cc1Nc1ncccc1S(C)(=O)=O` [Example 90], the pIC50 is 7.89.

For the compound `CNC(=O)c1nnc(Nc2ccc(C(F)(F)F)cn2)cc1Nc1ncccc1S(C)(=O)=O` [Example 91], the pIC50 was 7.37.

Turning to `CNC(=O)c1nnc(Nc2ccc(-n3cccc(C(F)(F)F)c3=O)cn2)cc1Nc1ncccc1S(C)(=O)=O` [Example 92], the pIC50 was 7.89.

As to `CNC(=O)c1nnc(Nc2cnc(C)cn2)cc1Nc1ncccc1S(C)(=O)=O` [Example 93], the pIC50 is 7.55.

On to `CNC(=O)c1nnc(Nc2cnc(C(F)(F)F)cn2)cc1Nc1ncccc1S(C)(=O)=O` [Example 95], for which the pIC50 was 6.88.

For `CNC(=O)c1nnc(Nc2cc(COC)ccn2)cc1Nc1ncccc1S(C)(=O)=O` [Example 96], the pIC50 was 8.40.

For the compound `CNC(=O)c1nnc(Nc2ccc(N3CCOCC3=O)cn2)cc1Nc1ncccc1S(C)(=O)=O` [Example 97], the pIC50 is 7.89.

Regarding `CNC(=O)c1nnc(Nc2cc(C)nc(C)n2)cc1Nc1ncccc1S(C)(=O)=O` [Example 98], the pIC50 was 7.31.

Take `CNC(=O)c1nnc(Nc2cnc3c(n2)CCCCC3)cc1Nc1ncccc1S(C)(=O)=O` [Example 99]: the negative logarithm of the IC50 (pIC50) was 7.36.

With `CNC(=O)c1nnc(Nc2ccc(N3CC(C)OC(C)C3)cn2)cc1Nc1ncccc1S(C)(=O)=O` (stereo not shown) [Example 100], the pIC50 was 7.82.

On to `CNC(=O)c1nnc(Nc2cc(COC)ncn2)cc1Nc1ncccc1S(C)(=O)=O` [Example 101], for which the pIC50 was 7.02.

Take `CNC(=O)c1nnc(Nc2ccc(-c3ccccc3)cn2)cc1Nc1ncccc1S(C)(=O)=O` [Example 102]: the pIC50 was 6.86.

`CNC(=O)c1nnc(Nc2ccc(N3CCOCC3C)cn2)cc1Nc1ncccc1S(C)(=O)=O` (stereo not shown) [Example 103]: the pIC50 was 7.80.

On to `CNC(=O)c1nnc(Nc2ccc(-c3c(F)cccc3F)nn2)cc1Nc1ncccc1S(C)(=O)=O` [Example 104], for which the pIC50 was 7.34.

As for `CNC(=O)c1nnc(Nc2ccc(N3CCOC(C)(C)C3)cn2)cc1Nc1ncccc1S(C)(=O)=O` [Example 105], the pIC50 was 8.05.

In the case of `CNC(=O)c1nnc(Nc2ccc(-c3ccccc3)nn2)cc1Nc1ncccc1S(C)(=O)=O` [Example 106], the pIC50 was 6.91.

Take `CCOC(=O)N1CCN(c2ccc(Nc3cc(Nc4ncccc4S(C)(=O)=O)c(C(=O)NC)nn3)nc2)CC1` [Example 107]: the pIC50 was 7.89.

Turning to `CCCC(=O)Nc1cc(Nc2ncccc2S(C)(=O)=O)c(C(=O)NC)nn1` [Example 108], the pIC50 was 6.78.

Consider `CNC(=O)c1nnc(Nc2ccc(N3CCOCC3)nn2)cc1Nc1ncccc1S(C)(=O)=O` [Example 110], for which the pIC50 was 7.70.

On to `CNC(=O)c1nnc(Nc2ccnc(-c3ccccc3)n2)cc1Nc1ncccc1S(C)(=O)=O` [Example 111], for which the pIC50 was 6.61.

`CNC(=O)c1nnc(NC(=O)OC)cc1Nc1ncccc1S(C)(=O)=O` [Example 112]: the pIC50 is 6.85.

With `CNC(=O)c1nnc(Nc2cccc(C(F)(F)F)n2)cc1Nc1ncccc1S(C)(=O)=O` [Example 113], the pIC50 was 7.06.

On to `CNC(=O)c1nnc(Nc2cncc(-c3ccccc3)n2)cc1Nc1ncccc1S(C)(=O)=O` [Example 115], for which the pIC50 was 6.72.

Turning to `CNC(=O)c1nnc(Nc2cccc(-c3ccccc3)n2)cc1Nc1ncccc1S(C)(=O)=O` [Example 117], the pIC50 was 6.48.

Regarding `CNC(=O)c1nnc(NC(=O)CCOC)cc1Nc1ncccc1S(C)(=O)=O` [Example 118], the pIC50 is 6.88.

As to `CCCCC(=O)Nc1cc(Nc2ncccc2S(C)(=O)=O)c(C(=O)NC)nn1` [Example 119], the pIC50 is 7.14.

Turning to `CNC(=O)c1nnc(NC(=O)C=C(C)C)cc1Nc1ncccc1S(C)(=O)=O` [Example 120], the pIC50 is 7.21.

Regarding `CCNC(=O)Nc1cc(Nc2ncccc2S(C)(=O)=O)c(C(=O)NC)nn1` [Example 121], the pIC50 is 7.41.

As for `CNC(=O)c1nnc(NC(=O)NC(C)(C)C)cc1Nc1ncccc1S(C)(=O)=O` [Example 122], the pIC50 is 6.81.

As to `CNC(=O)c1nnc(NC(=O)C=C2CCOCC2)cc1Nc1ncccc1S(C)(=O)=O` [Example 123], the pIC50 was 6.74.

Take `CNC(=O)c1nnc(Nc2cncc(C(F)(F)F)n2)cc1Nc1ncccc1S(C)(=O)=O` [Example 127]: the pIC50 was 6.52.

On to `CNC(=O)c1nnc(NC(=O)C=C2CCCCC2)cc1Nc1ncccc1S(C)(=O)=O` [Example 128], for which the pIC50 was 7.21.

For `CNC(=O)c1nnc(NC(=O)CC(C)C)cc1Nc1ncccc1S(C)(=O)=O` [Example 129], the pIC50 was 7.10.

`CNC(=O)c1nnc(NC(=O)C(C)C)cc1Nc1ncccc1S(C)(=O)=O` [Example 131]: the pIC50 was 6.36.

Turning to `CCOC(=O)Nc1cc(Nc2ncccc2S(C)(=O)=O)c(C(=O)NC)nn1` [Example 132], the pIC50 was 6.68.

As for `CNC(=O)c1nnc(NC(=O)COCc2ccccc2)cc1Nc1ncccc1S(C)(=O)=O` [Example 133], the pIC50 is 5.80.

With `CNC(=O)c1nnc(NC(=O)OC(C)C)cc1Nc1ncccc1S(C)(=O)=O` [Example 134], the pIC50 was 6.53.

As to `CCCOC(=O)Nc1cc(Nc2ncccc2S(C)(=O)=O)c(C(=O)NC)nn1` [Example 136], the pIC50 is 6.46.

Regarding `CNC(=O)c1nnc(Nc2ccnc(C(F)(F)F)n2)cc1Nc1ncccc1S(C)(=O)=O` [Example 138], the pIC50 is 6.35.

Regarding `CNC(=O)c1nnc(NC(=O)CC(C)(C)C)cc1Nc1ncccc1S(C)(=O)=O` [Example 139], the pIC50 was 6.05.

`CNC(=O)c1nnc(Nc2ccc(OC(F)(F)F)cn2)cc1Nc1ncccc1S(C)(=O)=O` [Example 140]: the pIC50 is 7.47.

For `CCC(O)(CC)c1cnc(Nc2cc(Nc3ncccc3S(C)(=O)=O)c(C(=O)NC)nn2)cc1Cl` [Example 147], the pIC50 was 6.64.

As for `CCOc1cc(Nc2cc(Nc3ncccc3S(C)(=O)=O)c(C(=O)NC)nn2)ncc1C(=O)NC1CC1` [Example 148], the pIC50 was 6.39.

With `CCOc1cc(Nc2cc(Nc3ncccc3S(C)(=O)=O)c(C(=O)NC)nn2)ncc1C(C)(C)O` [Example 149], the pIC50 was 6.85.

As for `CNC(=O)c1nnc(Nc2ccc(C(C)(C)O)c(F)n2)cc1Nc1ncccc1S(C)(=O)=O` [Example 151], the pIC50 is 8.70.

In the case of `CNC(=O)c1nnc(Nc2cccc(C3CC3)n2)cc1Nc1ncccc1S(C)(=O)=O` [Example 152], the pIC50 is 7.40.

With `CNC(=O)c1nnc(Nc2ccc(COC)cn2)cc1Nc1ncccc1S(C)(=O)=O` [Example 154], the pIC50 was 8.22.

Regarding `CNC(=O)c1nnc(Nc2cc(COC)ccn2)cc1Nc1ncccc1S(C)(=O)=O` [Example 156], the pIC50 was 8.15.

As to `CNC(=O)c1nnc(Nc2ccc(C(C)(C)OC)cn2)cc1Nc1ncccc1S(C)(=O)=O` [Example 157], the pIC50 is 7.68.

Consider `CNC(=O)c1nnc(Nc2ccc(OCCOC)cn2)cc1Nc1ncccc1S(C)(=O)=O` [Example 158], for which the pIC50 is 8.00.

Source of the values: patent publication US12365667B2, “Sulfone pyridine alkyl amide-substituted heteroaryl compounds” (BRISTOL-MYERS SQUIBB COMPANY, priority 2017, dated 2025).
